Experimental data as given in US9994824B2, “Method for promoting hair growth using composition comprising PDGF-D treated adipose-derived stem cells” (INDUSTRY-ACADEMIC COOPERATION FOUNDATION, YONSEI UNIVERSITY, priority 2015, dated 2018).

B1: PDGF-B: PDGF isoform growth factor protein, purchased from Sigma (protein, UniProt P01127 82-190, looked up)
Platelet-derived growth …: SLGSLTIAEPAMIAECKTRTEVFEISRRLIDRTNANFLVWPPCVEVQRCSGCCNNRNVQCRPTQVQLRPVQVRKIEIVRKKPIFKKATVTLEDHLACKCETVAAARPVT

Tests used:
[1] = test system: SERPINE1; experiment: SERPINE1 mRNA expression (PCR array, qPCR); type: cell-based, human; details: PDGF-D-treated ASCs plus inhibitor
Protocol: (§1) In this example, PDGF-D target genes were examined using a human signaling pathwayfinder RT^2 profiler PCR array (signaling pathway: PAHS-041ZD).
(§2) 2.5×10^5 of ASCs were seeded on 60-mm dishes, cultured in a 0.2% FBS-containing α-MEM medium, and treated with PDGF-D for 4-24 hours. Afterward, total RNA was extracted using an RNA extraction kit (RNeasy, Qiagen), cDNA was synthesized from 500 ng of total RNA by a cDNA synthesis kit (A3500, Promega) using 1,000 U reverse transcriptase and 50 ng/μl oligo(dT) primers. Gene expression was detected by a PCR array kit (Qiagen) according to the manufacturer's instructions, and qPCR was performed on a step one plus real-time PCR system (Applied Biosystems, Invitrogen) using a SYBR Green PCR master mix (Takara Bio, Japan).

[2] = test system: BCL2A1; experiment: BCL2A1 mRNA expression (PCR array, qPCR); type: cell-based, human; details: PDGF-D-treated ASCs plus inhibitor
Protocol: as §1, §2

[3] = test system: ROS generation in ASCs; experiment: intracellular ROS generation using DCF-DA; type: cell-based, human; details: PDGF-D-treated ASCs plus inhibitor
Protocol: ROS generation in cells were measured by a method using DCF-DA (Molecular probe, USA) (Kim et al., Stem Cells Dev 21:2212-2221, 2012; Kim et al., Stem Cells Dev 20:1753-1761, 2011), and mitochondrial ROS generation was measured using Mito-Sox (Molecular probe, USA). ASCs were seeded on 60-mm dishes, treated with PDGF-D (10 ng/ml) and 5 μM Mito-Sox and incubated in a dark place for 2 hours, and then flow cytometry was performed.

[4] = test system: growth factors VEGFA, FGF1, FGF5, BMP8B, LIF, INHBA, IL11 and HBEGF; experiment: growth factor expression (RT2 profiler PCR array of human growth factor, qPCR); type: cell-based
Protocol: Then, the paracrine effect of PDGF families was examined using an RT^2 profiler PCR array of a human growth factor (growth factor pathway: PAHS-041ZA).
The growth factor expression was measured by an RT^2 profiler PCR array (FIG. 9A).

[5] = test system: ASCs; experiment: cell migration assay (trans-well); type: cell-based, human; details: for migration of ASCs increased by PDGF-D, effect of inhibitor: inhibitor treatment of PDGF-D-treated ASCs
Protocol: (§3) Human ASCs were obtained from a subcutaneous fat by liposuction according to a known method (Kim et al. J Dermatol Sci 53:96-102, 2009). ASCs were cultured in an α-MEM medium (Hyclone, Thermo Scientific) with 10% FBS (GIBCO, Invitrogen) and 1% penicillin/streptomycin (GIBCO) at 37° C. in 5% CO2, and cells at 7-9 passages were used. Positive expression of CD44, CD73, CD90, CD105, HLA-1 and PODXL and negative expression of CD34 and CD45 were examined by flow cytometry (Kim et al. Cell Death Dis 4:e588, 2013; Kim et al., Cell Biol Int 38:32-40, 2014), and multipotent differentiation potential for the cells to differentiate into adipocytes, osteocytes and cartilage cells was examined (Song et al. Stem Cells Dev 17:451-461, 2008).
Also, for cell migration assay, 2×10^4/well of ASCs were seeded on the upper portion of a trans-well membrane plate (Corning, USA). After 2 hours, PDGF isoforms (10 ng/ml) and an α-MEM medium with 0.2% FBS were introduced to the lower portion of the trans-well membrane plate to culture the PDGF isoforms for 16 to 20 hours. Afterward, cells migrated to the trans-well membrane were fixed with cold ethanol for 20 minutes, and stained with 10% crystal-violet (Sigma, USA) at room temperature for 30 minutes.

[6] = test system: ASCs; experiment: cell proliferation assay (CCK-8 cell numbers); type: cell-based, human; details: for proliferation of ASCs increased by PDGF-D, effect of inhibitor: inhibitor treatment of PDGF-D-treated ASCs
Protocol: as §3
For cell proliferation assay, 7×10^3 of ASCs were seeded on 48-well plates, 24 hours later, a medium was transferred with a 0.2% FBS-containing α-MEM medium, and the following day, cells were treated with PDGF isoforms (10 ng/ml) for 48 hours. Afterward, the medium was removed, the cells were treated with a 10% CCK-8 solution for 2 hours using a CCK-8 assay kit (Dojindo, Japan), and the absorbance was measured at 450 nm, to examine cell numbers.

[7] = test system: mitochondria of ASCs; experiment: mitochondrial fission (MitoTracker Red, confocal microscope); type: cell-based, human; details: PDGF-D-treated ASCs plus inhibitor
Protocol: ASCs were seeded on a round cover glass and treated with PDGF-D (10 ng/ml) for 24 hours. For mitochondrial staining, 500 nM MitoTracker Red (Molecular Probe, USA) was added to an α-MEM medium, and cells were incubated for 30 minutes, and then the morphology of mitochondria and MitoTracker Red fluorescence were examined using a confocal microscope (Carl Zeiss). In addition, for nuclear staining, cells were fixed with 4% paraformaldehyde for 15 minutes, permeabilized with 0.5% PBS-T for 5 minutes, and stained with DAPI (Sigma, USA) at room temperature for 10 minutes.

Row | Molecule | SERPINE1 expression, effect of inhibitor [1] | BCL2A1 expression, effect of inhibitor [2] | DCF-DA fluorescence, effect of inhibitor/scavenger [3] | migration of ASCs increased by PDGF-D, effect of inhibitor [5] | proliferation of ASCs increased by PDGF-D, effect of inhibitor [6] | further results
1 | COCCOc1ccc2c(c1)ncn2-c1ccc2cccc(N3CCC(N)CC3)c2n1 [cp673451] | decreased | decreased | considerably decreased | – | – | –
2 | N#CC(=C(/N)Sc1ccccc1N)/C(C#N)=C(\N)Sc1ccccc1N [U0126] | – | – | – | not influenced | not influenced | expression of a growth factor induced by PDGF-D, effect of inhibitor (PCR array) ([4]; 10 μM inhibitor, RT2 profiler PCR array): inhibited; expression of the growth factor induced by PDGF-D, effect of inhibitor (qPCR) ([4]; qPCR): inhibited
3 | COc1cc(-n2c(=S)[nH]c3ccccc3c2=O)c(Cl)cc1Cl [Mdivi-1] | – | – | – | considerably decreased | considerably decreased | mitochondrial fission induced by PDGF-D treatment, effect of inhibitor [7]: decreased
4 | CC1(C)CC(C(=O)OCCCCCCCCCC[P+](c2ccccc2)(c2ccccc2)c2ccccc2)C(C)(C)N1O (stereo not drawn) [Mito-CP] | considerably decreased | no influence | considerably decreased | considerably decreased | considerably decreased | –
5 | S=C(S)N1CCCC1 [PDTC] | – | decreased | – | – | – | –
6 | B1 | – | – | – | – | – | cell migration ([5]; PDGF isoforms 10 ng/ml, 16 to 20 hours, 0.2% FBS α-MEM): considerably enhanced twice or more; cell proliferation (cell numbers) ([6]; PDGF isoforms 10 ng/ml, 48 hours, 0.2% FBS α-MEM): considerably enhanced twice or more
